According to patent US11427567B2, “Imidazolyl pyrimidinylamine compounds as CDK2 inhibitors” (Incyte Corporation, priority 2019, dated 2022):

biological target: CDK2/Cyclin E1 (Homo sapiens (Human), UniProt P24941); experiment: CDK2/Cyclin E1 HTRF enzyme activity assay (Example A); format: biochemical; settings: 1 mM ATP
Protocol: Assays were conducted in white 384-well polystyrene plates in a final reaction volume of 8 μL. […] HTRF signals were read after 1 hour at room temperature on a PHERAstar FS plate reader (BMG Labtech). Data was analyzed with IDBS XLFit and GraphPad Prism 5.0 software using a three or four parameter dose response curve to determine IC50 for each compound.

Compound | IC50 [nM]
CS(=O)(=O)N1CCC(Nc2ncc(C#N)c(-c3cn(-c4ccc(C#N)cc4Cl)cn3)n2)CC1 [Example 28, 4-(1-(2-Chloro-4-cyanophenyl)-1H-imidazol-4-yl)-2-((1-(methylsulfonyl)piperidin-4-yl)amino)pyrimidine-5-carbonitrile] | ≤ 50
O=S(=O)(C1CC1)N1CCC(Nc2ncc(C(F)(F)F)c(-c3cn(CC(F)F)cn3)n2)CC1 [Example 29, N-(1-(Cyclopropylsulfonyl)piperidin-4-yl)-4-(1-(2,2-difluoroethyl)-1H-imidazol-4-yl)-5-(trifluoromethyl)pyrimidin-2-amine] | ≤ 50
CC(C)(O)Cn1cnc(-c2nc(NC3CCN(S(=O)(=O)C4CC4)CC3)ncc2C(F)(F)F)c1 [Example 30, 1-(4-(2-((1-(Cyclopropylsulfonyl)piperidin-4-yl)amino)-5-(trifluoromethyl)pyrimidin-4-yl)-1H-imidazol-1-yl)-2-methylpropan-2-ol] | ≤ 50
CS(=O)(=O)N1CCC(Nc2ncc(C(F)(F)F)c(-c3cn(-c4ccccc4C#N)cn3)n2)CC1 [Example 31, 2-(4-(2-((1-(Methylsulfonyl)piperidin-4-yl)amino)-5-(trifluoromethyl)pyrimidin-4-yl)-1H-imidazol-1-yl)benzonitrile] | ≤ 50
CS(=O)(=O)N1CCC(Nc2ncc(C(F)(F)F)c(-c3cn(-c4cccnc4C(F)(F)F)cn3)n2)CC1 [Example 32, N-(1-(Methylsulfonyl)piperidin-4-yl)-5-(trifluoromethyl)-4-(1-(2-(trifluoromethyl)pyridin-3-yl)-1H-imidazol-4-yl)pyrimidin-2-amine] | ≤ 50
Cc1nc(C#N)ccc1-n1cnc(-c2nc(NC3CCN(S(C)(=O)=O)CC3)ncc2C(F)(F)F)c1 [Example 33, 6-Methyl-5-(4-(2-((1-(methylsulfonyl)piperidin-4-yl)amino)-5-(trifluoromethyl)pyrimidin-4-yl)-1H-imidazol-1-yl)picolinonitrile] | ≤ 50
CS(=O)(=O)N1CCC(Nc2ncc(C(F)(F)F)c(-c3cn(-c4cccnc4C#N)cn3)n2)CC1 [Example 34, 3-(4-(2-((1-(Methylsulfonyl)piperidin-4-yl)amino)-5-(trifluoromethyl)pyrimidin-4-yl)-1H-imidazol-1-yl)picolinonitrile] | ≤ 50
Cc1cc(C#N)ccc1-n1cnc(-c2nc(NC3CCN(S(C)(=O)=O)CC3)ncc2C(F)(F)F)c1 [Example 35, 3-Methyl-4-(4-(2-((1-(methylsulfonyl)piperidin-4-yl)amino)-5-(trifluoromethyl)pyrimidin-4-yl)-1H-imidazol-1-yl)benzonitrile] | ≤ 50
Cc1ccc(-n2cnc(-c3nc(NC4CCN(S(C)(=O)=O)CC4)ncc3C(F)(F)F)c2)c(C#N)n1 [Example 36, 6-Methyl-3-(4-(2-((1-(methylsulfonyl)piperidin-4-yl)amino)-5-(trifluoromethyl)pyrimidin-4-yl)-1H-imidazol-1-yl)picolinonitrile] | ≤ 50
CS(=O)(=O)N1CCC(Nc2ncc(C(F)(F)F)c(-c3cn(-c4cccnc4C(F)F)cn3)n2)CC1 [Example 37, 4-(1-(2-(Difluoromethyl)pyridin-3-yl)-1H-imidazol-4-yl)-N-(1-(methylsulfonyl)piperidin-4-yl)-5-(trifluoromethyl)pyrimidin-2-amine] | ≤ 50
CS(=O)(=O)N1CCC(Nc2ncc(C(F)(F)F)c(-c3cn(-c4cccc(C#N)c4C(F)(F)F)cn3)n2)CC1 [Example 38, 3-(4-(2-((1-(Methylsulfonyl)piperidin-4-yl)amino)-5-(trifluoromethyl)pyrimidin-4-yl)-1H-imidazol-1-yl)-2-(trifluoromethyl)benzonitrile] | ≤ 50
COc1ccc(-n2cnc(-c3nc(NC4CCN(S(C)(=O)=O)CC4)ncc3C(F)(F)F)c2)c(C#N)n1 [Example 39, 6-Methoxy-3-(4-(2-((1-(methylsulfonyl)piperidin-4-yl)amino)-5-(trifluoromethyl)pyrimidin-4-yl)-1H-imidazol-1-yl)picolinonitrile] | ≤ 50
CN(C)CCOc1ccc(-n2cnc(-c3nc(NC4CCN(S(C)(=O)=O)CC4)ncc3C(F)(F)F)c2)c(C#N)n1 [Example 40, 6-(2-(Dimethylamino)ethoxy)-3-(4-(2-((1-(methylsulfonyl)piperidin-4-yl)amino)-5-(trifluoromethyl)pyrimidin-4-yl)-1H-imidazol-1-yl)picolinonitrile] | ≤ 50
CCc1ccc(-n2cnc(-c3nc(NC4CCN(S(C)(=O)=O)CC4)ncc3C(F)(F)F)c2)c(C#N)n1 [Example 41, 6-Ethyl-3-(4-(2-((1-(methylsulfonyl)piperidin-4-yl)amino)-5-(trifluoromethyl)pyrimidin-4-yl)-1H-imidazol-1-yl)picolinonitrile] | ≤ 50
Cc1c(C#N)cccc1-n1cnc(-c2nc(N[C@H]3CCN(S(C)(=O)=O)C[C@H]3F)ncc2C(F)(F)F)c1 [Example 42, 3-(4-(2-(((3R,4S)-3-Fluoro-1-(methylsulfonyl)piperidin-4-yl)amino)-5-(trifluoromethyl)pyrimidin-4-yl)-1H-imidazol-1-yl)-2-methylbenzonitrile] | ≤ 50
Cc1c(C#N)cccc1-n1cnc(-c2nc(NC3CCN(S(C)(=O)=O)CC3)ncc2C(F)(F)F)c1 [Example 43, 2-Methyl-3-(4-(2-((1-(methylsulfonyl)piperidin-4-yl)amino)-5-(trifluoromethyl)pyrimidin-4-yl)-1H-imidazol-1-yl)benzonitrile] | ≤ 50
Cc1ccc(-n2cnc(-c3nc(NC4CCN(S(C)(=O)=O)CC4)ncc3C(F)(F)F)c2)c(C(F)(F)F)n1 [Example 44, 4-(1-(6-Methyl-2-(trifluoromethyl)pyridin-3-yl)-1H-imidazol-4-yl)-N-(1-(methylsulfonyl)piperidin-4-yl)-5-(trifluoromethyl)pyrimidin-2-amine] | ≤ 50
CS(=O)(=O)N1CC[C@H](Nc2ncc(C(F)(F)F)c(-c3cn(-c4cccc(C#N)c4Cl)cn3)n2)[C@H](F)C1 [Example 45, 2-Chloro-3-(4-(2-(((3R,4S)-3-fluoro-1-(methylsulfonyl)piperidin-4-yl)amino)-5-(trifluoromethyl)pyrimidin-4-yl)-1H-imidazol-1-yl)benzonitrile] | ≤ 50
Cc1ccc(-n2cnc(-c3nc(N[C@H]4CCN(S(C)(=O)=O)C[C@H]4F)ncc3C(F)(F)F)c2)c(C(F)(F)F)n1 [Example 46, N-((3R,4S)-3-Fluoro-1-(methylsulfonyl)piperidin-4-yl)-4-(1-(6-methyl-2-(trifluoromethyl)pyridin-3-yl)-1H-imidazol-4-yl)-5-(trifluoromethyl)pyrimidin-2-amine] | ≤ 50
CS(=O)(=O)N1CC[C@H](Nc2ncc(C(F)(F)F)c(-c3cn(-c4cccnc4C#N)cn3)n2)[C@H](F)C1 [Example 47, 3-(4-(2-(((3R,4S)-3-Fluoro-1-(methylsulfonyl)piperidin-4-yl)amino)-5-(trifluoromethyl)pyrimidin-4-yl)-1H-imidazol-1-yl)picolinonitrile] | ≤ 50
CS(=O)(=O)N1CC[C@H](Nc2ncc(C(F)(F)F)c(-c3cn(-c4cccnc4C(F)(F)F)cn3)n2)[C@H](F)C1 [Example 48, N-((3R,4S)-3-Fluoro-1-(methylsulfonyl)piperidin-4-yl)-5-(trifluoromethyl)-4-(1-(2-(trifluoromethyl)pyridin-3-yl)-1H-imidazol-4-yl)pyrimidin-2-amine] | ≤ 50
Cc1nc(C#N)ccc1-n1cnc(-c2nc(N[C@H]3CCN(S(C)(=O)=O)C[C@H]3F)ncc2C(F)(F)F)c1 [Example 49, 5-(4-(2-(((3R,4S)-3-Fluoro-1-(methylsulfonyl)piperidin-4-yl)amino)-5-(trifluoromethyl)pyrimidin-4-yl)-1H-imidazol-1-yl)-6-methylpicolinonitrile] | ≤ 50
CS(=O)(=O)N1CC[C@H](Nc2ncc(C(F)(F)F)c(-c3cn(-c4cccnc4C(F)F)cn3)n2)[C@H](F)C1 [Example 50, 4-(1-(2-(Difluoromethyl)pyridin-3-yl)-1H-imidazol-4-yl)-N-((3R,4S)-3-fluoro-1-(methylsulfonyl)piperidin-4-yl)-5-(trifluoromethyl)pyrimidin-2-amine] | ≤ 50
Cc1ccc(-n2cnc(-c3nc(N[C@H]4CCN(S(C)(=O)=O)C[C@H]4F)ncc3C(F)(F)F)c2)c(C#N)n1 [Example 51, 3-(4-(2-(((3R,4S)-3-Fluoro-1-(methylsulfonyl)piperidin-4-yl)amino)-5-(trifluoromethyl)pyrimidin-4-yl)-1H-imidazol-1-yl)-6-methylpicolinonitrile] | ≤ 50
COc1ccc(-n2cnc(-c3nc(N[C@H]4CCN(S(C)(=O)=O)C[C@H]4F)ncc3C(F)(F)F)c2)c(C#N)n1 [Example 52, 3-(4-(2-(((3R,4S)-3-Fluoro-1-(methylsulfonyl)piperidin-4-yl)amino)-5-(trifluoromethyl)pyrimidin-4-yl)-1H-imidazol-1-yl)-6-methoxypicolinonitrile] | ≤ 50
CN(C)CCOc1ccc(-n2cnc(-c3nc(N[C@H]4CCN(S(C)(=O)=O)C[C@H]4F)ncc3C(F)(F)F)c2)c(C#N)n1 [Example 53, 6-(2-(Dimethylamino)ethoxy)-3-(4-(2-(((3R,4S)-3-fluoro-1-(methylsulfonyl)piperidin-4-yl)amino)-5-(trifluoromethyl)pyrimidin-4-yl)-1H-imidazol-1-yl)picolinonitrile] | ≤ 50
CS(=O)(=O)N1CCC(Nc2ncc(C(F)(F)F)c(-c3cn(-c4c(F)cccc4Cl)cn3)n2)CC1 [Example 54, 4-(1-(2-Chloro-6-fluorophenyl)-1H-imidazol-4-yl)-N-(1-(methylsulfonyl)piperidin-4-yl)-5-(trifluoromethyl)pyrimidin-2-amine] | ≤ 50
CS(=O)(=O)N1CCC(Nc2ncc(C(F)(F)F)c(-c3cn(-c4ccccc4Cl)cn3)n2)CC1 [Example 55, 4-(1-(2-Chlorophenyl)-1H-imidazol-4-yl)-N-(1-(methylsulfonyl)piperidin-4-yl)-5-(trifluoromethyl)pyrimidin-2-amine] | ≤ 50
